Molecular target: human adenosine A2a receptor (Homo sapiens (Human), UniProt P29274)
Assay: A2a receptor binding affinity, [3H]-NECA radioligand binding test
Settings: [3H]-NECA 37 nM; membrane from HEK-293 cells transfected with human adenosine A2a receptor
Summary of the method: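 IC50 values (μM) come from displacement of [3H]-NECA, used at 37 nM final, on human A2a receptor membranes from transfected HEK-293 cells. Incubation lasted one hour at room temperature in Tris/MgCl2/EDTA buffer, pH 7.4; filter-bound radioactivity was counted by scintillation.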

Chain of human adenosine A2a receptor (P29274 whole entry): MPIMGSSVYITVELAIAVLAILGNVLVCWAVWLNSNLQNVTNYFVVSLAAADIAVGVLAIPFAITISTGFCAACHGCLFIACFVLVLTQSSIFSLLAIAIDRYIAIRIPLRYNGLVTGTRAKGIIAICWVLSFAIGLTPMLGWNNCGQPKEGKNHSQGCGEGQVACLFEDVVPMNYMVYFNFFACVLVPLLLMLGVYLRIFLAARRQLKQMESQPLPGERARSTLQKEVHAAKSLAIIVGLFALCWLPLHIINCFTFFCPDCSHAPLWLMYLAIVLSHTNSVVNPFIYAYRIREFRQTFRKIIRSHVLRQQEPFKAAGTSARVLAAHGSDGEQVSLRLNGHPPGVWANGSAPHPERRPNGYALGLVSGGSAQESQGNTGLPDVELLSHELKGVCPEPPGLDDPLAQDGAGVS

Structure (SMILES)	IC50
Nc1nc(N2CCC[C@H]2C(=O)N2CCC3(CC2)CN(C(=O)Nc2ccccc2)C3)nc2nc(-c3ccco3)nn12 [Example 183, 7-((7-amino-2-(furan-2-yl)-[1,2,4]triazolo[1,5-a][1,3,5]triazin-5-yl)-L-prolyl)-N-phenyl-2,7-diazaspiro[3.5]nonane-2-carboxamide]	0.002 µM
Nc1nc(N[C@@H](CO)C(=O)N2CCN(c3ncccn3)CC2)nc2nc(-c3ccco3)nn12 [Example 235, (S)-2-((7-amino-2-(furan-2-yl)-[1,2,4]triazolo[1,5-a][1,3,5]triazin-5-yl)amino)-3-hydroxy-1-(4-(pyrimidin-2-yl)piperazin-1-yl)propan-1-one]	0.01 µM
Nc1nc(N2CCC[C@H]2C(=O)N2CCN(Cc3ccc(F)cc3F)CC2)nc2oc(-c3ccco3)nc12 [Example 41, (S)-(1-(7-amino-2-(furan-2-yl)oxazolo[5,4-d]pyrimidin-5-yl)pyrrolidin-2-yl)(4-(2,4-difluorobenzyl)piperazin-1-yl)methanone]	0.013 µM
Nc1nc(N2CCC[C@H]2C(=O)N2CCC(C(=O)Nc3cnccn3)CC2)nc2nc(-c3ccco3)nn12 [Example 80, 1-((7-amino-2-(furan-2-yl)-[1,2,4]triazolo[1,5-a][1,3,5]triazin-5-yl)-L-prolyl)-N-(pyrazin-2-yl)piperidin-4-carboxamide]	0.007 µM
CC(C)(F)CN1CCN(C(=O)[C@H]2CCCN2c2nc(N)n3nc(-c4ccco4)nc3n2)CC1 [Example 93, (R)-(1-(7-amino-2-(furan-2-yl)-[1,2,4]triazolo[1,5-a][1,3,5]triazin-5-yl)pyrrolidin-2-yl)(4-(2-fluoro-2-methylpropyl)piperazin-1-yl)methanone]	3.79 µM
C[C@H](Nc1nc(N)n2nc(-c3ccco3)nc2n1)C(=O)N1CCN(CC(C)(C)O)CC1 [Example 349, (S)-2-((7-amino-2-(furan-2-yl)-[1,2,4]triazolo[1,5-a][1,3,5]triazin-5-yl)amino)-1-(4-(2-hydroxy-2-methylpropyl)piperazin-1-yl)propan-1-one]	0.0122 µM
Nc1nc(N2CCC[C@H]2C(=O)N2CCN(C3CC4CCC3C4)CC2)nc2nc(-c3ccco3)nn12 (stereo partly drawn) [Example 156, ((S)-1-(7-amino-2-(furan-2-yl)-[1,2,4]triazolo[1,5-a][1,3,5]triazin-5-yl)pyrrolidin-2-yl)(4-(bicyclo[2.2.1]heptan-2-yl)piperazin-1-yl)methanone]	0.012 µM
CC(C)(O)CC(=O)N1CCC(C2CCN(C(=O)[C@@H]3CCCN3c3nc(N)n4nc(-c5ccco5)nc4n3)CC2)CC1 [Example 290, 1-(1′-((7-amino-2-(furan-2-yl)-[1,2,4]triazolo[1,5-a][1,3,5]triazin-5-yl)-L-prolyl)-[4,4′-bipiperidin]-1-yl)-3-hydroxy-3-methylbutan-1-one]	0.002 µM
Nc1nc(N2CCC[C@H]2C(=O)N2CCN(CC(F)(F)F)CC2)nc2nc(-c3ccco3)nn12 [Example 48, (S)-(1-(7-amino-2-(furan-2-yl)-[1,2,4]triazolo[1,5-a][1,3,5]triazin-5-yl)pyrrolidin-2-yl)(4-(2,2,2-trifluoroethyl)piperazin-1-yl)methanone]	0.013 µM
Nc1nc(N2CCC[C@H]2C(=O)N2CCN(CC(F)(F)C(F)F)CC2)nc2oc(-c3ccco3)nc12 [Example 271, (S)-(1-(7-amino-2-(furan-2-yl)oxazolo[5,4-d]pyrimidin-5-yl)pyrrolidin-2-yl)(4-(2,2,3,3-tetrafluoropropyl)piperazin-1-yl)methanone]	0.01 µM
CC(C)(O)CC(=O)N1CCC(C2CCN(C(=O)[C@@H]3CCN3c3nc(N)n4nc(-c5ccco5)nc4n3)CC2)CC1 [Example 327, (S)-1-(1′-(1-(7-amino-2-(furan-2-yl)-[1,2,4]triazolo[1,5-a][1,3,5]triazin-5-yl)azetidine-2-carbonyl)-[4,4′-bipiperidin]-1-yl)-3-hydroxy-3-methylbutan-1-one]	0.011 µM
CC(C)(F)CN1CCN(C(=O)[C@@H]2CC3(CC3)CN2c2nc(N)n3nc(-c4ccco4)nc3n2)CC1 [Example 386, (S)-(5-(7-amino-2-(furan-2-yl)-[1,2,4]triazolo[1,5-a][1,3,5]triazin-5-yl)-5-azaspiro[2.4]heptan-6-yl)(4-(2-fluoro-2-methylpropyl)piperazin-1-yl)methanone]	0.008 µM
CCOC[C@H](Nc1nc(N)n2nc(-c3ccco3)nc2n1)C(=O)N1CCN(c2ncccn2)CC1 [Example 307, (S)-2-((7-amino-2-(furan-2-yl)-[1,2,4]triazolo[1,5-a][1,3,5]triazin-5-yl)amino)-3-ethoxy-1-(4-(pyrimidin-2-yl)piperazin-1-yl)propan-1-one]	0.007 µM
Nc1nc(N2CCC[C@H]2C(=O)N2CCN(CCC(F)(F)F)CC2)nc2nc(-c3ccco3)nn12 [Example 281, (S)-(1-(7-amino-2-(furan-2-yl)-[1,2,4]triazolo[1,5-a][1,3,5]triazin-5-yl)pyrrolidin-2-yl)(4-(3,3,3-trifluoropropyl)piperazin-1-yl) methanone]	0.009 µM
Nc1nc(N2CCC[C@H]2C(=O)N2CCC(C3CCN(C(=O)c4ccccc4)CC3)CC2)nc2nc(-c3ccco3)nn12 [Example 161, (1′-((7-amino-2-(furan-2-yl)-[1,2,4]triazolo[1,5-a][1,3,5]triazin-5-yl)-L-prolyl)-[4,4′-bipiperidin]-1-yl)(phenyl)methanone]	0.009 µM
C[C@H](Nc1nc(N)n2nc(-c3ccco3)nc2n1)C(=O)N1CCC(C2CCN(CC(C)(C)O)CC2)CC1 [Example 333, (S)-2-((7-amino-2-(furan-2-yl)-[1,2,4]triazolo[1,5-a][1,3,5]triazin-5-yl)amino)-1-(1′-(2-hydroxy-2-methylpropyl)-[4,4′-bipiperidin]-1-yl)propan-1-one]	0.009 µM
Nc1nc(N[C@@H](CN2CCCCC2)C(=O)N2CCN(c3ccc(F)cc3F)CC2)nc2nc(-c3ccco3)nn12 [Example 272, (S)-2-((7-amino-2-(furan-2-yl)-[1,2,4]triazolo[1,5-a][1,3,5]triazin-5-yl)amino)-1-(4-(2,4-difluorophenyl)piperazin-1-yl)-3-(piperidin-1-yl)propan-1-one]	0.015 µM
Cc1ccc(-c2nc3nc(N4CCC[C@H]4C(=O)N4CCN(CC(F)F)CC4)nc(N)n3n2)o1 [Example 297, (S)-(1-(7-amino-2-(5-methylfuran-2-yl)-[1,2,4]triazolo[1,5-a][1,3,5]triazin-5-yl)pyrrolidin-2-yl)(4-(2,2-difluoroethyl)piperazin-1-yl)methanone]	0.015 µM
COCCN1CCC(C2CCN(C(=O)[C@@H]3CCN3c3nc(N)n4nc(-c5ccco5)nc4n3)CC2)CC1 [Example 329, (S)-(1-(7-amino-2-(furan-2-yl)-[1,2,4]triazolo[1,5-a][1,3,5]triazin-5-yl)azetidin-2-yl)(1′-(2-methoxyethyl)-[4,4′-bipiperidin]-1-yl)methanone]	0.026 µM
Nc1nc(N2CCC[C@H]2C(=O)N2CCN(CC3(C(F)(F)F)CCCCC3)CC2)nc2nc(-c3ccco3)nn12 [Example 286]	0.002 µM
C[C@H](Nc1nc(N)n2nc(-c3ccco3)nc2n1)C(=O)N1CCN(c2ccc(F)cc2F)CC1 [Example 9, (S)-2-((7-amino-2-(furan-2-yl)-[1,2,4]triazolo[1,5-a][1,3,5]triazin-5-yl)amino)-1-(4-(2,4-difluorophenyl)piperazin-1-yl)propan-1-one]	0.00242 µM
Nc1nc(N[C@@H](Cc2ccccc2)C(=O)N2CCN(Cc3ccc(F)cc3F)CC2)nc2nc(-c3ccco3)nn12 [Example 13, (S)-2-((7-amino-2-(furan-2-yl)-[1,2,4]triazolo[1,5-a][1,3,5]triazin-5-yl)amino)-1-(4-(2,4-difluorobenzyl)piperazin-1-yl)-3-phenylpropan-1-one]	0.0001 µM
Nc1nc(N2CCC[C@H]2C(=O)N2C3CCC2CN(C(=O)c2ccccc2)C3)nc2nc(-c3ccco3)nn12 [Example 158, (8-((7-amino-2-(furan-2-yl)-[1,2,4]triazolo[1,5-a][1,3,5]triazin-5-yl)-L-prolyl)-3,8-diazabicyclo[3.2.1]octan-3-yl)(phenyl)methanone]	0.012 µM
CC(F)(F)CN1CCN(C(=O)[C@@H]2CCN2c2nc(N)n3nc(-c4ccco4)nc3n2)CC1 [Example 253, (S)-(1-(7-amino-2-(furan-2-yl)-[1,2,4]triazolo[1,5-a][1,3,5]triazin-5-yl)azetidin-2-yl)(4-(2,2-difluoropropyl)piperazin-1-yl)methanone]	0.007 µM
COCCN1CCN(C(=O)[C@H](C)Nc2nc(N)n3nc(-c4ccco4)nc3n2)CC1 [Example 118, (S)-2-((7-amino-2-(furan-2-yl)-[1,2,4]triazolo[1,5-a][1,3,5]triazin-5-yl)amino)-1-(4-(2-methoxyethyl)piperazin-1-yl)propan-1-one]	0.021 µM
CCCCN1CCN(C(=O)[C@H](COC)Nc2nc(N)n3nc(-c4ccco4)nc3n2)CC1 [Example 401, (S)-2-((7-amino-2-(furan-2-yl)-[1,2,4]triazolo[1,5-a][1,3,5]triazin-5-yl)amino)-1-(4-butylpiperazin-1-yl)-3-methoxypropan-1-one]	0.011 µM
CC(C)[C@H](Nc1nc(N)n2nc(-c3ccco3)nc2n1)C(=O)N1CCN(CC(F)F)CC1 [Example 355, (S)-2-((7-amino-2-(furan-2-yl)-[1,2,4]triazolo[1,5-a][1,3,5]triazin-5-yl)amino)-1-(4-(2,2-difluoroethyl)piperazin-1-yl)-3-methylbutan-1-one]	0.014 µM
Nc1nc(N2CCC[C@H]2C(=O)N2CCN(C(=O)c3ccc(C(F)(F)F)cn3)CC2)nc2nc(-c3ccco3)nn12 [Example 83]	0.016 µM
CC(C)[C@H](Nc1nc(N)n2nc(-c3ccco3)nc2n1)C(=O)N1CCN(CCC(F)(F)F)CC1 [Example 367, (S)-2-((7-amino-2-(furan-2-yl)-[1,2,4]triazolo[1,5-a][1,3,5]triazin-5-yl)amino)-3-methyl-1-(4-(3,3,3-trifluoropropyl)piperazin-1-yl)butan-1-one]	0.014 µM
